The source of these data is patent US20050281867A1, “Nitric oxide inducing agents” (priority 2003, published 2005).

In assay [1] the test system is nitric oxide. Description: Nitric oxide production / systemic NO levels in treated patients. It is filed as in vivo, human. As to the method: Moreover, it was observed that a few patients who received treatment with an agent of the instant invention began to develop resistance due to down-regulation of the insulin receptor. This effect was reversed by co-administering low dose aspirin (15 mg) with the agent. Upon co-administration, the production of nitric oxide returned to normal within 30 minutes of treatment. While the instant agents work through the insulin receptor, aspirin appeared to be insulin-independent and was nitric oxide mediated. Accordingly, one embodiment of the instant methods is the co-administration, i.e., simultaneous or sequential, of low dose aspirin (e.g., ranging from 5-100 mg) with an agent of the instant invention. […] Expression of maspin, a serine protease inhibitor (serpin) known to be a potent anticancer protein, is severely impaired in breast cancer tissue. […] Similarly, production of alpha interferon-a, a widely used anticancer cytokine noted for its antiproliferative and anticancer property, is severely impaired in both malignant breast cancer tissue and non-malignant neutrophils in breast cancer. As with maspin, increases in nitric oxide levels increased production of alpha-interferon to normal ranges. By administering an agent of the instant invention, the auto immunity that is T-cell induced is improved through the neutrophils.

In assay [2] the test system is wide variety of cancers. Description: Topical treatment of cancer patients, overall statements. The format is in vivo, human. The source says:
A total of 8,125 patients with different kinds of cancer participated in this study. These patients were divided into two groups. Blood samples were collected from 80 patients designated as Group I. These patients included 45 males between 20-65 years old, and 35 females between 25-55 years old. These patients were newly diagnosed patients with cancer who at the time of blood donation had not taken any medicine at least for 14 days and had not yet undergone any treatment of cancer including radiation or chemotherapy but opted for surgery. None of the patients had overt diabetes mellitus, systemic hypertension or suffered coronary artery disease at presentation. None of these patients had any other diagnosed life threatening condition.
Two categories of patients were included in Group II. The first category included 6,705 patients who had previously undergone all available cancer treatments including surgery, radiation and chemotherapy. At the time of participation in the study these patients had exhausted all therapeutic options and were under the care of private physicians and family members in their home. […] At the time of the participation in the study all patients, in the Group II in the second category had stopped taking treatments for cancer, such as chemotherapy and radiation, for at least 2 months. The diagnostic procedures and condition of the patients at presentation are described in Table 1. All institutionalized patients in group II were excluded from the study to avoid ambiguity. As in the case of Group I the patients with any other life threatening conditions or severe infection were also excluded from this group.
A control group of 150 patients were selected randomly from the Group II patients. […] Since the effect of the agents of the instant invention on the neutralization of IANOS antibody in vivo in cancer patients (responders) could be noticed by immunoblot technique (end-point) in 7 days, the patients in the placebo group received the vehicle for 7 days; the neutralization of the antibody and nitric oxide synthesis were determined. […]

In assay [3] the test system is insulin-activated nitric oxide synthase (IANOS). In words: Assay of IANOS of human erythrocytes. It is filed as biochemical. As to the method: Both biologic and non-biologic materials for were screened for their ability to activate human erythrocytes IANOS. […] The protein was purified to homogeneity from an aqueous extract (pH 7.4 buffer) by the combination of DEAE cellulose chromatography and SEPHADEX® gel filtration techniques.
Insulin-activated nitric oxide synthase (IANOS) activity of the erythrocyte suspension was carried out by determining the conversion of oxyhemoglobin to methemoglobin using standard methods. Purification of insulin activated nitric oxide synthase (from human erythrocyte membranes) was carried out by DEAE cellulose chromatography.

Assay [4] concerns maspin and alpha interferon-a. Description: Maspin and alpha interferon in breast cancer tissue and neutrophils of treated subjects. It is filed as in vivo, human. The following applies: malignant breast cancer tissue and non-malignant neutrophils in breast cancer. The text has this: Expression of maspin, a serine protease inhibitor (serpin) known to be a potent anticancer protein, is severely impaired in breast cancer tissue. […] Similarly, production of alpha interferon-a, a widely used anticancer cytokine noted for its antiproliferative and anticancer property, is severely impaired in both malignant breast cancer tissue and non-malignant neutrophils in breast cancer. As with maspin, increases in nitric oxide levels increased production of alpha-interferon to normal ranges. By administering an agent of the instant invention, the auto immunity that is T-cell induced is improved through the neutrophils.

`CC(=O)Oc1ccccc1C(=O)O` [aspirin, reference compound]: in assay [1] (low dose aspirin (15 mg) co-administered with the agent, patients who developed resistance (insulin receptor down-regulation)), the “time until production of nitric oxide returned to normal” value is ≤ 30 min.

For insulin, the “cancers in which particularly effective” value in assay [2] (non-Hodgkin's lymphoma, brain cancer, breast cancer with mastectomy, lung cancer (non-small cell)) is recorded as “particularly effective”. Moreover, the “comparative effect of both agents” value in assay [2] (pancreatic cancer and bone cancer) is “equally effective”. Besides, the “effect against a wide variety of cancers” value in assay [2] (topical, cancer patients, as shown in Table 1) is recorded as “effective”. Moreover, the “activation of erythrocyte IANOS” value in assay [3] was “potent activator”. Besides, in assay [4], the alpha interferon-a result is reported as “increase” and the maspin result is recorded as “increase”. Moreover, in assay [1] (after administration), the “systemic NO levels” value was “increase”.
